# Measured values from US6737383B1, “Herbicidal oxadiazolidines” (priority 1999, dated 2004).
# What was measured:
# blackgrass = assay: Test E blackgrass; type: in vivo, Alopecurus myosuroides; details: Preemergence; for Blackgrass plant response rating (0 to 100 scale): Rate 250 g/ha
# cocklebur = assay: Test B pre/postemergence cocklebur; type: in vivo, Xanthium strumarium
# Summary of the method: (§1)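 Response is a visual 0-to-10 score relative to untreated plants, where 0 means no effect and 10 means complete control, taken twelve to sixteen days after application. Treatments went onto soil at planting and onto foliage of 1- to 4-leaf plants, using a surfactant-containing non-phytotoxic solvent.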
# winter barley = assay: Test E winter barley; type: in vivo, Hordeum vulgare; details: Preemergence; for Barley (winter) plant response rating (0 to 100 scale): Rate 250 g/ha
# winter wheat [1] = assay: Test E winter wheat; type: in vivo, Triticum aestivum; details: Postemergence; for Wheat (winter) plant response rating: Rate 250 g/ha
# Summary of the method: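 Greenhouse test: compounds in non-phytotoxic solvent with surfactant; for postemergence, sprayed on plants at 1- to 4-leaf stage grown in 60:40 sandy loam/potting mix. Injury rated visually against untreated controls after about 21 to 28 days.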
# Italian ryegrass = assay: Test E Italian ryegrass; type: in vivo, Lolium multiflorum; details: Preemergence; for I. Ryegrass plant response rating (0 to 100 scale): Rate 250 g/ha
# morningglory = assay: Test B pre/postemergence morningglory; type: in vivo, Ipomoea hederacea
# Summary of the method: as §1
# giant foxtail = assay: Test B pre/postemergence giant foxtail; type: in vivo, Setaria faberii
# Summary of the method: as §1
# bamyardgrass = assay: Test B flood test barnyardgrass; type: in vivo, Echinochloa crus-galli
# Summary of the method: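 Flood test on plants grown to the 2-leaf stage; treated plants kept in greenhouse twelve to sixteen days, then visually rated against controls on a 0 (no effect) to 10 (complete control) scale.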
# winter wheat [2] = assay: Test E winter wheat; type: in vivo, Triticum aestivum; details: Preemergence; for Wheat (winter) plant response rating (0 to 100 scale): Rate 250 g/ha
# wild oat = assay: Test E wild oat; type: in vivo, Avena fatua; details: Preemergence; for Wild oat plant response rating (0 to 100 scale): Rate 250 g/ha
# green foxtail = assay: Test E green foxtail; type: in vivo, Setaria viridis; details: Preemergence; for Green foxtail plant response rating (0 to 100 scale): Rate 250 g/ha
# [3] = Rate 125 g/ha, 0 to 100 scale (0 no effect, 100 complete control)
# [4] = Rate 500 g/ha, 0 to 100 scale where 0 is no effect and 100 is complete control
# [5] = Preemergence, Rate 62 g/ha, scale of 0 to 10 where 0 is no effect and 10 is complete control
# [6] = Preemergence, Rate 250 g/ha, scale of 0 to 10 where 0 is no effect and 10 is complete control
# [7] = Preemergence, Rate 500 g/ha, scale of 0 to 10 where 0 is no effect and 10 is complete control
# [8] = Rate 62 g/ha, Postemergence, scale of 0 to 10 where 0 is no effect and 10 is complete control
# [9] = Rate 125 g/ha, Preemergence, scale of 0 to 10 where 0 is no effect and 10 is complete control
# [10] = Rate 500 g/ha, Postemergence, scale 0 to 10, 0 no effect, 10 complete control
# [11] = Rate 125 g/ha, 0 to 100 scale, 0 is no effect, 100 is complete control
# [12] = 0 to 100 scale where 0 is no effect and 100 is complete control
# [13] = Rate 500 g/ha, 0 to 100 scale, 0 is no effect, 100 is complete control
# [14] = Rate 62 g/ha, headed Pre-emergence (flood test species), scale 0 to 10 (0 no effect, 10 complete control)
# [15] = Rate 125 g/ha, Pre-emergence, flood test species, scale 0 to 10 where 0 is no effect and 10 is complete control
# [16] = Rate 250 g/ha, Pre-emergence, flood-test species, scale 0 to 10, 0 is no effect, 10 is complete control
# [17] = Rate 500 g/ha, Pre-emergence, flood test species, scale 0 to 10 (0 no effect, 10 complete control)
# [18] = Rate 1000 g/ha, 0 to 100 scale, 0 no effect, 100 complete control
# [19] = Rate 62 g/ha, Postemergence, scale 0 to 10 (0 no effect, 10 complete control)
# [20] = Rate 125 g/ha, Postemergence, scale of 0 to 10 where 0 is no effect and 10 is complete control
# [21] = Rate 250 g/ha, Postemergence, scale of 0 to 10 where 0 is no effect and 10 is complete control
# [22] = Rate 500 g/ha, 0 to 100 scale (0 no effect, 100 complete control)
# [23] = Rate 31 g/ha, 0 to 100 scale, 0 no effect, 100 complete control
# [24] = Rate 62 g/ha, 0 to 100 scale, 0 no effect, 100 complete control
# [25] = Preemergence, Rate 31 g/ha, visual rating, scale 0 to 10 (0 no effect, 10 complete control)
# [26] = Rate 16 g/ha, Postemergence, scale 0 to 10, 0 no effect, 10 complete control
# [27] = Rate 16 g/ha, Preemergence, scale 0 to 10, 0 no effect, 10 complete control
# [28] = Rate 31 g/ha, Postemergence, scale 0 to 10
smiles,measurement,setting,value
CC(C)N(C(=O)n1oc(=O)n(C2CC2)c1=O)c1ccc(Cl)cc1 [Compound 241],"Plant response rating, Blackgrass",blackgrass; [3],60
same,Blackgrass plant response rating (0 to 100 scale),blackgrass,100
same,"Plant response rating, Blackgrass",blackgrass; [4],98
same,Cocklebur plant response rating,cocklebur; [5],0
same,Cocklebur plant response rating,cocklebur; [6],0
same,"Plant response rating, Cocklebur",cocklebur; [7],0
same,Cocklebur plant response rating,cocklebur; [8],0
same,Cocklebur plant response rating,"cocklebur; Rate 125 g/ha, Postemergence, scale 0 to 10",0
same,Cocklebur plant response rating,cocklebur; [9],0
same,"Plant response rating (0 to 10; 0 is no effect, 10 is complete control), Cocklebur","cocklebur; Rate 250 g/ha, Postemergence",1
same,Cocklebur plant response rating,cocklebur; [10],1
same,"Plant response rating, Barley (winter)",winter barley; [3],40
same,Barley (winter) plant response rating (0 to 100 scale),winter barley,50
same,"Plant response rating, Barley (winter)",winter barley; [4],60
same,"Plant response rating, Wheat (winter)",winter wheat [1]; [11],20
same,Wheat (winter) plant response rating,winter wheat [1]; [12],60
same,"Plant response rating, Wheat (winter)",winter wheat [1]; [13],50
same,"Plant response rating, I. Ryegrass",Italian ryegrass; [3],60
same,I. Ryegrass plant response rating (0 to 100 scale),Italian ryegrass,70
same,"Plant response rating, I. Ryegrass",Italian ryegrass; [4],100
same,Morningglory plant response rating,morningglory; [5],0
same,Morningglory plant response rating,morningglory; [6],3
same,"Plant response rating, Morningglory",morningglory; [7],5
same,Morningglory plant response rating,morningglory; [8],3
same,Morningglory plant response rating,morningglory; [9],0
same,"Plant response rating (0 to 10; 0 is no effect, 10 is complete control), Morningglory","morningglory; Rate 250 g/ha, Postemergence",5
same,Morningglory plant response rating,morningglory; [10],8
same,Giant foxtail plant response rating,giant foxtail; [5],10
same,Giant foxtail plant response rating,giant foxtail; [6],10
same,"Plant response rating, Giant foxtail",giant foxtail; [7],10
same,Giant foxtail plant response rating,giant foxtail; [8],2
same,Giant foxtail plant response rating,giant foxtail; [9],10
same,"Plant response rating (0 to 10; 0 is no effect, 10 is complete control), Giant foxtail","giant foxtail; Rate 250 g/ha, Postemergence",6
same,Giant foxtail plant response rating,giant foxtail; [10],8
same,Barnyardgrass plant response rating,bamyardgrass; [14],0
same,Barnyardgrass plant response rating,bamyardgrass; [15],0
same,Barnyardgrass plant response rating,bamyardgrass; [16],0
same,Barnyardgrass plant response rating,bamyardgrass; [17],0
same,"Plant response rating, Wheat (winter)",winter wheat [2]; [3],40
same,Wheat (winter) plant response rating (0 to 100 scale),winter wheat [2],50
same,"Plant response rating, Wheat (winter)",winter wheat [2]; [4],60
same,"Plant response rating, Wild oat",wild oat; [3],50
same,Wild oat plant response rating (0 to 100 scale),wild oat,60
same,"Plant response rating, Wild oat",wild oat; [4],55
same,"Plant response rating, Green foxtail",green foxtail; [3],65
same,Green foxtail plant response rating (0 to 100 scale),green foxtail,90
same,"Plant response rating, Green foxtail",green foxtail; [4],90
CC(C)N(C(=O)n1oc(=O)n(C2CCCC2)c1=O)c1ccc(F)cc1F [Compound 284],Blackgrass plant response rating (0 to 100 scale),blackgrass,65
same,"Plant response rating, Blackgrass",blackgrass; [18],70
same,Cocklebur plant response rating,cocklebur; [5],0
same,"Plant response rating, Cocklebur",cocklebur; [7],0
same,Cocklebur plant response rating,cocklebur; [19],0
same,Cocklebur plant response rating,cocklebur; [20],2
same,"Plant response rating, Cocklebur",cocklebur; [21],2
same,Cocklebur plant response rating,cocklebur; [10],2
same,Barley (winter) plant response rating (0 to 100 scale),winter barley,50
same,"Plant response rating, Barley (winter)",winter barley; [22],30
same,"Plant response rating, Barley (winter)",winter barley; [18],60
same,"Plant response rating, Wheat (winter)","winter wheat [1]; Rate 1000 g/ha, 0 to 100 scale where 0 is no effect and 100 is complete control",85
same,Wheat (winter) plant response rating,winter wheat [1]; [12],60
same,"Plant response rating, Wheat (winter)",winter wheat [1]; [13],20
same,I. Ryegrass plant response rating (0 to 100 scale),Italian ryegrass,85
same,"Plant response rating, I. Ryegrass",Italian ryegrass; [22],70
same,"Plant response rating, I. Ryegrass",Italian ryegrass; [18],85
same,Morningglory plant response rating,morningglory; [5],0
same,Morningglory plant response rating,morningglory; [6],1
same,"Plant response rating, Morningglory",morningglory; [7],2
same,Morningglory plant response rating,morningglory; [19],7
same,Morningglory plant response rating,morningglory; [20],7
same,Morningglory plant response rating,morningglory; [9],1
same,"Plant response rating, Morningglory",morningglory; [21],7
same,Giant foxtail plant response rating,giant foxtail; [5],9
same,Giant foxtail plant response rating,giant foxtail; [6],9
same,"Plant response rating, Giant foxtail",giant foxtail; [7],10
same,Giant foxtail plant response rating,giant foxtail; [19],0
same,Giant foxtail plant response rating,giant foxtail; [20],2
same,Giant foxtail plant response rating,giant foxtail; [9],9
same,"Plant response rating, Giant foxtail",giant foxtail; [21],3
same,Barnyardgrass plant response rating,bamyardgrass; [14],0
same,Barnyardgrass plant response rating,bamyardgrass; [15],1
same,Barnyardgrass plant response rating,bamyardgrass; [16],4
same,Barnyardgrass plant response rating,bamyardgrass; [17],9
same,Wheat (winter) plant response rating (0 to 100 scale),winter wheat [2],70
same,"Plant response rating, Wheat (winter)",winter wheat [2]; [22],70
same,"Plant response rating, Wheat (winter)",winter wheat [2]; [18],80
same,Wild oat plant response rating (0 to 100 scale),wild oat,70
same,"Plant response rating, Wild oat",wild oat; [22],60
same,"Plant response rating, Wild oat",wild oat; [18],70
same,Green foxtail plant response rating (0 to 100 scale),green foxtail,100
same,"Plant response rating, Green foxtail",green foxtail; [22],100
same,"Plant response rating, Green foxtail",green foxtail; [18],100
CC(C)N(C(=O)n1oc(=O)n(CCCF)c1=O)c1ccc(F)cc1 [Compound 287],"Plant response rating, Blackgrass",blackgrass; [23],30
same,"Plant response rating, Blackgrass",blackgrass; [24],30
same,"Plant response rating, Blackgrass",blackgrass; [3],50
same,Blackgrass plant response rating (0 to 100 scale),blackgrass,60
same,Cocklebur plant response rating,cocklebur; [25],0
same,Cocklebur plant response rating,cocklebur; [5],0
same,Cocklebur plant response rating,cocklebur; [26],0
same,Cocklebur plant response rating,cocklebur; [27],0
same,Cocklebur plant response rating,cocklebur; [28],0
same,Cocklebur plant response rating,cocklebur; [19],0
same,Cocklebur plant response rating,cocklebur; [20],1
same,Cocklebur plant response rating,cocklebur; [9],0
same,"Plant response rating, Barley (winter)",winter barley; [23],30
same,"Plant response rating, Barley (winter)",winter barley; [24],20
same,"Plant response rating, Barley (winter)",winter barley; [3],30
same,Barley (winter) plant response rating (0 to 100 scale),winter barley,35
same,"Plant response rating, Wheat (winter)",winter wheat [1]; [23],30
same,"Plant response rating, Wheat (winter)","winter wheat [1]; Rate 62 g/ha, 0 to 100 scale",30
same,"Plant response rating, Wheat (winter)",winter wheat [1]; [11],40
same,Wheat (winter) plant response rating,winter wheat [1]; [12],50
same,"Plant response rating, I. Ryegrass",Italian ryegrass; [23],20
same,"Plant response rating, I. Ryegrass",Italian ryegrass; [24],50
same,"Plant response rating, I. Ryegrass",Italian ryegrass; [3],55
same,I. Ryegrass plant response rating (0 to 100 scale),Italian ryegrass,60
same,Morningglory plant response rating,morningglory; [25],0
same,Morningglory plant response rating,morningglory; [5],0
same,Morningglory plant response rating,morningglory; [26],2
same,Morningglory plant response rating,morningglory; [27],0
same,Morningglory plant response rating,morningglory; [28],2
same,Morningglory plant response rating,morningglory; [19],2
same,Morningglory plant response rating,morningglory; [20],2
same,Morningglory plant response rating,morningglory; [9],0
same,Giant foxtail plant response rating,giant foxtail; [25],9
same,Giant foxtail plant response rating,giant foxtail; [5],10
same,Giant foxtail plant response rating,giant foxtail; [26],0
same,Giant foxtail plant response rating,giant foxtail; [27],8
same,Giant foxtail plant response rating,giant foxtail; [28],2
same,Giant foxtail plant response rating,giant foxtail; [19],7
same,Giant foxtail plant response rating,giant foxtail; [20],8
same,Giant foxtail plant response rating,giant foxtail; [9],10
same,Barnyardgrass plant response rating,"bamyardgrass; Rate 16 g/ha, head printed Pre-emergence (flood test species), scale 0 to 10, 0 no effect, 10 complete control",0
same,Barnyardgrass plant response rating,"bamyardgrass; Rate 31 g/ha, Pre-emergence section (flood test species), scale 0 to 10",0
same,Barnyardgrass plant response rating,bamyardgrass; [14],0
same,Barnyardgrass plant response rating,bamyardgrass; [15],0
same,"Plant response rating, Wheat (winter)",winter wheat [2]; [23],40
same,"Plant response rating, Wheat (winter)",winter wheat [2]; [24],30
same,"Plant response rating, Wheat (winter)",winter wheat [2]; [3],45
same,Wheat (winter) plant response rating (0 to 100 scale),winter wheat [2],50
same,"Plant response rating, Wild oat",wild oat; [23],0
same,"Plant response rating, Wild oat",wild oat; [24],30
same,"Plant response rating, Wild oat",wild oat; [3],70
same,Wild oat plant response rating (0 to 100 scale),wild oat,60
same,"Plant response rating, Green foxtail",green foxtail; [23],30
same,"Plant response rating, Green foxtail",green foxtail; [24],60
same,"Plant response rating, Green foxtail",green foxtail; [3],60
same,Green foxtail plant response rating (0 to 100 scale),green foxtail,90
